Active and inactive are the calls of the source. Cut-off read from the data, not from the text of the source: actives have a measured IC50 and inactives only a lower limit.
target: Envelope glycoprotein gp160 (Human immunodeficiency virus 1, UniProt Q6QLK5); assay: inhibitors of HIV fusion peptide binding, primary screen, biochemical, uHTS, fluorescence dequenching (AID 1986)
Sequence (Q6QLK5 whole entry, the tested form may be a part): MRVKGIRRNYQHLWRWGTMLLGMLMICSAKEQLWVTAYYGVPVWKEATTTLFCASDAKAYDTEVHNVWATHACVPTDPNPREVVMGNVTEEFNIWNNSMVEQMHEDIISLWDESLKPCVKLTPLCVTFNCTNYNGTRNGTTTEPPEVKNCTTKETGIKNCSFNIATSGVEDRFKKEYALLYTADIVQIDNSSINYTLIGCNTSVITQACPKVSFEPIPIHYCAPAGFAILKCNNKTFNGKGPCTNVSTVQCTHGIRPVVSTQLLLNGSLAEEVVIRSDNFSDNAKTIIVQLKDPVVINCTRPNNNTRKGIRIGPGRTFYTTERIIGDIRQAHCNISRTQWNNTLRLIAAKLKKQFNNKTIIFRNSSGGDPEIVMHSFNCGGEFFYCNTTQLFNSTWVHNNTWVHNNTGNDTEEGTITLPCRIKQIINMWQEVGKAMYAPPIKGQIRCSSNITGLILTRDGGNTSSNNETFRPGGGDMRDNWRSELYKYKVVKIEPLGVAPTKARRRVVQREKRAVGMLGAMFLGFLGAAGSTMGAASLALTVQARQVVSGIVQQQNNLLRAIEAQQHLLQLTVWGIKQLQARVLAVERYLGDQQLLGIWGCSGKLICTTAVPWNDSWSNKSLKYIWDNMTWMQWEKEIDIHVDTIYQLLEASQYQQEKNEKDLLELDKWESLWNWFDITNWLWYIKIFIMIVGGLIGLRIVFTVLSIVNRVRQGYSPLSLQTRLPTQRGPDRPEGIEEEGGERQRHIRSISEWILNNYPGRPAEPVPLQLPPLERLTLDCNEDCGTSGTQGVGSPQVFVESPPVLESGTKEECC

SMILES	IC50
CCCOc1ccc(C(=O)NNC(=S)NC(=O)c2cc(-c3ccc(Cl)cc3)nc3ccccc23)cc1	19.9 µM (active)
O=C1/C(=C2\C(=O)N(Cc3ccc(F)cc3)c3ccccc32)SC(=S)N1CCS(=O)(=O)O	15 µM (active)
CCOc1cc(/C=N/NC2=NC(=O)C(CC(=O)O)S2)ccc1OCc1ccc(Cl)cc1 (stereo not drawn)	24.6 µM (active)
